Experimental data reported in PubChem BioAssay (NCI).
“And” between values parts separate entries of the source, which are not always exact repeats. Equal values may be shown once.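 96-well plates; 48 h exposure; 5 concentrations. Endpoints by linear interpolation between flanking doses. Not reached: highest tested concentration assigned. GI50 marks 50% less growth. TGI marks complete inhibition of growth.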

How the values were obtained:
Assay in all cases: NCI anticancer screen, dose series, 48 h
HL-60(TB) leukemia = tested on: HL-60(TB) leukemia
HOP-62 NSCLC = tested on: HOP-62 NSCLC
SK-MEL-28 melanoma = tested on: SK-MEL-28 melanoma
SK-MEL-2 melanoma = tested on: SK-MEL-2 melanoma
A498 renal = tested on: A498 renal
T-47D breast = tested on: T-47D breast
KM12 colon = tested on: KM12 colon
OVCAR-8 ovarian = tested on: OVCAR-8 ovarian
SF-295 CNS = tested on: SF-295 CNS
NCI-H23 lung = tested on: NCI-H23 lung

Compound | GI50 (HL-60(TB) leukemia) [µM] | TGI (HL-60(TB) leukemia) [µM] | GI50 (HOP-62 NSCLC) | TGI (HOP-62 NSCLC) | TGI (SK-MEL-28 melanoma) [µM] | TGI (SK-MEL-2 melanoma) | GI50 (A498 renal) | TGI (A498 renal) [µM] | GI50 (T-47D breast) | TGI (T-47D breast) | GI50 (KM12 colon) | TGI (KM12 colon) | TGI (OVCAR-8 ovarian) | TGI (SF-295 CNS) | GI50 (NCI-H23 lung) | TGI (NCI-H23 lung)
Cc1ccc(OCC2OC(n3cnc4c(Cl)ncnc43)CC2Oc2ccc(C)cc2)cc1 (stereo unspecified) | 2.79 | 7.17 | 4.29 µM and 17.5 µM | 13 µM and 38 µM | 14.9 | 30.2 µM and 33.8 µM | 20.4 µM and > 44.5 µM | > 70.8 | 8.39 µM and 29.2 µM | 49.5 µM and > 100 µM | 2.42 µM and 14.3 µM | 6.57 µM and 42 µM | 24.6 µM and 24.2 µM | 30.2 µM and 38.1 µM | 3.03 µM and 11.9 µM | 7.99 µM and 27.8 µM
Cc1cc(C)c2c(=N)c3ccccc3n(CCCCCCO)c2n1 |  | 6.19 |  | 23.6 µM | 33 | 9.47 µM |  | 26.9 |  | 12.1 µM |  | 13.5 µM | 5.49 µM | 11.9 µM |  | 6.69 µM
COc1cc(/C=C2\Cc3cc(OC)c(OC)cc3C2=O)cc(OC)c1 |  | > 100 |  | > 80.1 µM | > 100 | > 100 µM |  | > 100 |  | > 100 µM |  | > 100 µM | > 67.5 µM | 41.7 µM |  | > 56.9 µM
OC(CCN1CCN(CCOC(c2ccccc2)c2ccccc2)CC1)c1ccc(Br)cc1 (stereo unspecified) |  | 28.8 |  | 32 µM | 22.8 | 25.6 µM |  | 22 |  | 33.4 µM |  | 36.9 µM | 19.9 µM | 29.8 µM |  | 28 µM
Cc1cc(O)ccc1C1(c2ccc(F)cc2)OC(=O)c2ccccc21 (stereo unspecified) |  | > 72.2 |  | 19.7 µM | 25.8 | 17.4 µM |  | 32.9 |  | 0.974 µM |  | 7.3 µM | 2.05 µM | 14.2 µM |  | 3.27 µM
O=C(/C=C(\O)c1ccccc1)/C(=C/C(=O)c1ccccc1)NN=C(c1ccccc1)c1ccccc1 |  | 6.8 |  | > 100 µM | > 100 | 84.2 µM |  | > 100 |  | > 100 µM |  | > 100 µM | > 100 µM | > 100 µM |  | 79.9 µM
CN(C)Cc1cc(C(=O)/C=C/c2cccc(Cl)c2)cc(CN(C)C)c1O |  | 4.58 |  | 13.7 µM | 17.1 | 26 µM |  | 14.2 |  | 19.9 µM |  | 19.7 µM | 61.3 µM | 27 µM |  | 37.9 µM
N#CC12C(=O)N3C(=NC(c4ccccc4)NC3c3ccccc3)C1(C#N)C(c1ccccc1)NC1=C2CCCC1 (stereo unspecified) |  | > 100 |  | > 100 µM | > 100 | > 100 µM |  | > 100 |  | > 100 µM |  | > 100 µM | > 100 µM | > 100 µM |  | > 100 µM
N=C(N)SCCCN |  | 7.75 |  | 35.7 µM | > 86 | 32.2 µM |  | > 100 |  | > 100 µM |  | 59.6 µM | > 100 µM | > 66.8 µM |  | 41.2 µM
COC1=CC(=O)c2c(O)c3c(c(O)c2C1=O)C[C@](C)(O)C[C@@H]3O |  | 7.91 |  | 19.7 µM | 18.4 | 14.3 µM |  | 20.1 |  | 22.3 µM |  | 19 µM | 15.7 µM | 11.5 µM |  | 6.7 µM
CC(NNC(=O)c1ccncc1)c1ccc(Cl)c(Cl)c1 (stereo unspecified) |  | > 100 |  | > 100 µM | > 100 | > 100 µM |  | > 100 |  | > 100 µM |  | > 100 µM | > 100 µM | > 100 µM |  | > 100 µM
CC(=O)CC(C)(C)NC(=O)[C@@]1(O)CC[C@H]2[C@@H]3CCC4=CC(=O)CC[C@@H]4[C@H]3CC[C@@]21C |  | > 100 |  | > 100 µM | > 100 | > 100 µM |  | > 100 |  | > 100 µM |  | > 100 µM | > 100 µM | > 100 µM |  | > 100 µM
CCn1c2ccc(O)c(C(=O)OC)c2c2cc3ccccc3c(O)c21 |  | 60 |  | 45 µM | 87.4 | 36.6 µM |  | 39.5 |  | 34.1 µM |  | 33.6 µM | 56.9 µM | 64.5 µM |  | 52.4 µM
O=C1NC2CCCCC2N=C1/C(C(=O)c1ccccc1)=C(\O)c1ccccc1 (stereo unspecified) |  | > 100 |  | > 100 µM | > 100 | > 100 µM |  | > 100 |  | > 100 µM |  | > 100 µM | 86.6 µM | > 100 µM |  | > 100 µM
COc1ccc(/C(=N/Nc2nc3ccccc3[nH]2)C(=O)O)cc1 |  | > 100 |  | > 100 µM | > 100 | > 100 µM |  | > 100 |  | > 100 µM |  | > 100 µM | > 100 µM | > 100 µM |  | > 100 µM
N#Cc1c(Nc2nc3ccccc3s2)c2ccccc2n2c1nc1ccccc12 |  | > 100 |  | > 100 µM | > 100 | > 100 µM |  | > 100 |  | > 100 µM |  | > 100 µM | > 100 µM | > 100 µM |  | > 100 µM
c1csc(-c2csc(-c3ccsc3)c2)c1 |  | > 100 |  | > 100 µM | > 100 | > 100 µM |  | > 100 |  | > 100 µM |  | > 100 µM | > 100 µM | > 100 µM |  | > 100 µM
CC1(C)CCCCCCCCCC(C)(CCCCCCCCCCCCO)C1=O (stereo unspecified) |  | 38.3 |  | 47.5 µM | 32.6 | 32.7 µM |  | 35.7 |  | 34 µM |  | 31.1 µM | 28.4 µM | 30.4 µM |  | 33.7 µM
Cc1ccc(SC[C@@]2(C(F)F)NC(=O)NC2=O)cc1 |  | > 100 |  | > 100 µM | > 100 | > 100 µM |  | > 100 |  | > 100 µM |  | > 100 µM | > 100 µM | > 100 µM |  | > 100 µM
